What is called MIC is the least concentration at which growth counts as inhibited.

What all share (type): functional
Test [1] relates to Pseudomonas aeruginosa. Kind of test: Antibacterial activity against Pseudomonas aeruginosa PAO1 assessed as inhibition of bacterial growth incubated for 18 hrs by two fold broth microdilution assay.
In test [2] the test system is Escherichia coli. The test is described as follows: Antibacterial activity against Escherichia coli ATCC 25922 assessed as inhibition of bacterial growth incubated for 18 hrs by two fold broth microdilution assay. In general terms: In broth dilution the organism is exposed to a series of concentrations in liquid medium.
In test [3] the test system is Acinetobacter baumannii. Kind of test: Antibacterial activity against Acinetobacter baumannii ATCC 17978 assessed as inhibition of bacterial growth incubated for 18 hrs by two fold broth microdilution assay.
The subject of test [4] is Pseudomonas aeruginosa. The test is described as follows: Antibiotic adjuvant activity against Pseudomonas aeruginosa PAO1 assessed as fold potentiation incubated for 18 hrs in presence of Rifampicin by two fold broth microdilution checkerboard assay.
Test [5] has as its system Acinetobacter baumannii. Kind of test: Antibiotic adjuvant activity against Acinetobacter baumannii ATCC 17978 assessed as fold potentiation incubated for 18 hrs in presence of Rifampicin by two fold broth microdilution checkerboard assay.
Test [6] relates to Escherichia coli. Kind of test: Antibiotic adjuvant activity against Escherichia coli ATCC 25922 assessed as rifampicin MIC incubated for 18 hrs in presence of Rifampicin by two fold broth microdilution checkerboard assay.
In test [7] the test system is Acinetobacter baumannii. Kind of test: Antibiotic adjuvant activity against Acinetobacter baumannii ATCC 17978 assessed as rifampicin MIC incubated for 18 hrs in presence of Rifampicin by two fold broth microdilution checkerboard assay.
The test system of test [8] is Pseudomonas aeruginosa. Kind of test: Antibacterial activity against multi-drug resistant Pseudomonas aeruginosa clinical isolate PA259 assessed as inhibition of bacterial growth incubated for 18 hrs by two fold broth microdilution assay.
Test [9] has as its system Pseudomonas aeruginosa. The test is described as follows: Antibacterial activity against multi-drug resistant Pseudomonas aeruginosa clinical isolate PA262 assessed as inhibition of bacterial growth incubated for 18 hrs by two fold broth microdilution assay.
Test [10] concerns Pseudomonas aeruginosa. The test is described as follows: Antibacterial activity against multi-drug resistant Pseudomonas aeruginosa clinical isolate PA264 assessed as inhibition of bacterial growth incubated for 18 hrs by two fold broth microdilution assay.
The subject of test [11] is Pseudomonas aeruginosa. The test is described as follows: Antibacterial activity against multi-drug resistant Pseudomonas aeruginosa clinical isolate PA101243 assessed as inhibition of bacterial growth incubated for 18 hrs by two fold broth microdilution assay.
In test [12] the test system is Pseudomonas aeruginosa. The test is described as follows: Antibacterial activity against multi-drug resistant Pseudomonas aeruginosa clinical isolate PA114228 assessed as inhibition of bacterial growth incubated for 18 hrs by two fold broth microdilution assay.
Test [13] relates to Escherichia coli. Kind of test: Antibacterial activity against multi-drug resistant Escherichia coli clinical isolate EC107115 assessed as inhibition of bacterial growth incubated for 18 hrs by two fold broth microdilution assay.
The test system of test [14] is Escherichia coli. Kind of test: Antibacterial activity against multi-drug resistant Escherichia coli clinical isolate EC94474 assessed as inhibition of bacterial growth incubated for 18 hrs by two fold broth microdilution assay.
Test [15] relates to Enterococcus faecium. The test is described as follows: Antibacterial activity against Enterococcus faecium 114278 assessed as inhibition of bacterial growth incubated for 18 hrs by two fold broth microdilution assay.
In test [16] the test system is Enterococcus faecium. The test is described as follows: Antibacterial activity against Enterococcus faecium 128149 assessed as inhibition of bacterial growth incubated for 18 hrs by two fold broth microdilution assay.
Test [17] has as its system Staphylococcus aureus. The test is described as follows: Antibacterial activity against methicilin-resistant Staphylococcus aureus assessed as inhibition of bacterial growth incubated for 18 hrs by two fold broth microdilution assay.
The subject of test [18] is Escherichia coli. Kind of test: Antibiotic adjuvant activity against Escherichia coli ATCC 25922 assessed as fold potentiation incubated for 18 hrs in presence of Rifampicin by two fold broth microdilution checkerboard assay.
Test [19] deals with Enterococcus faecium. Kind of test: Antibiotic adjuvant activity against Enterococcus faecium 114278 assessed as inhibition of bacterial growth incubated for 18 hrs in presence of rifampicin by two fold broth microdilution checkerboard assay.
Test [20] deals with Enterococcus faecium. The test is described as follows: Antibiotic adjuvant activity against Enterococcus faecium 128149 assessed as inhibition of bacterial growth incubated for 18 hrs in presence of rifampicin by two fold broth microdilution checkerboard assay.
Test [21] relates to Staphylococcus aureus. The test is described as follows: Antibiotic adjuvant activity against methicilin-resistant Staphylococcus aureus assessed as inhibition of bacterial growth incubated for 18 hrs in presence of rifampicin by two fold broth microdilution checkerboard assay.

In brackets after ≈: the same amount, converted by molar mass. Activity calls are given as the source filed them. The rule behind the calls is not given here. Positions of bridges follow the written chain, without caps; N, C: chain ends. Non-standard residues stand in square brackets, D forms with d. Residues, ends and D or L forms follow the SMILES beside them. *: point of attachment. X1 = CC[C@H](C)CCCCC(=O)*; dDab = NCC[C@@H](N)C(=O)O; Dab = NCC[C@H](N)C(=O)O

As to `NC[C@H]1O[C@H](O[C@H]2[C@H](OC(=O)Nc3ccc(Cl)cc3)[C@@H](O[C@H]3O[C@H](COC(=O)Nc4ccc(Cl)cc4)[C@@H](OC(=O)Nc4ccc(Cl)cc4)[C@H](N)[C@H]3OC(=O)Nc3ccc(Cl)cc3)[C@H](N)C[C@@H]2N)[C@H](N)C[C@@H]1OC(=O)Nc1ccc(Cl)cc1.O=C(O)C(F)(F)F`, the MIC was found to be 64 µg/mL in the test on Pseudomonas aeruginosa [1]; 32 µg/mL with Escherichia coli [2]; 32 µg/mL with Acinetobacter baumannii [3]; 0.5 µg/mL with Escherichia coli [6]; 0.004 µg/mL in the test with Acinetobacter baumannii [7]. The results for the fold change (FC) in the test on Pseudomonas aeruginosa [4] and in the test on Acinetobacter baumannii [5] were 1 and 16, respectively.
With `Cl.NC[C@H]1O[C@H](O[C@H]2[C@H](OCc3ccc(-c4ccccc4)cc3)[C@@H](O[C@H]3O[C@H](COCc4ccc(-c5ccccc5)cc4)[C@@H](OCc4ccc(-c5ccccc5)cc4)[C@H](N)[C@H]3OCc3ccc(-c4ccccc4)cc3)[C@H](N)C[C@@H]2N)[C@H](N)C[C@@H]1OCc1ccc(-c2ccccc2)cc1`, the MIC in the test with Pseudomonas aeruginosa [1], in the test with Escherichia coli [2] and with Acinetobacter baumannii [3] was greater than 128 µg/mL in each case.
For `C[C@H]1c2cccc(O)c2C(=O)C2=C(O)[C@]3(O)C(=O)C(C(N)=O)=C(O)[C@@H](N(C)C)[C@@H]3[C@@H](O)[C@@H]21.O` [DOXYCYCLINE], the MIC is 256 µg/mL with Pseudomonas aeruginosa [8]; 512 µg/mL in the test on Pseudomonas aeruginosa [9]; 64 µg/mL with Pseudomonas aeruginosa [10]; greater than 128 µg/mL in the test with Pseudomonas aeruginosa [11]; greater than 128 µg/mL in the test on Pseudomonas aeruginosa [12]; 128 µg/mL in the test with Escherichia coli [13]. For the same compound, the MIC in the test with Escherichia coli [14] stood at 64 µg/mL.
For `CC(C)(C)c1ccc(COC[C@H]2O[C@H](O[C@@H]3[C@@H](OCc4ccc(C(C)(C)C)cc4)[C@H](O[C@H]4O[C@H](CN)[C@@H](OCc5ccc(C(C)(C)C)cc5)C[C@H]4N)[C@@H](N)C[C@H]3N)[C@H](OCc3ccc(C(C)(C)C)cc3)[C@@H](N)[C@@H]2OCc2ccc(C(C)(C)C)cc2)cc1.Cl`, the MIC in the test on Pseudomonas aeruginosa [1], in the test with Escherichia coli [2] and in the test on Acinetobacter baumannii [3] was greater than 128 µg/mL throughout.
On to COLISTIN, for which the minimal inhibitory concentration (MIC) in the test on Pseudomonas aeruginosa [1] amounted to 1 µg/mL; in the test with Escherichia coli [2], 0.5 µg/mL; in the test with Acinetobacter baumannii [3], 0.5 µg/mL.
Consider `Cl.NC[C@H]1O[C@H](O[C@H]2[C@H](OCc3cc(Cl)cc(Cl)c3)[C@@H](O[C@H]3O[C@H](COCc4cc(Cl)cc(Cl)c4)[C@@H](OCc4cc(Cl)cc(Cl)c4)[C@H](N)[C@H]3OCc3cc(Cl)cc(Cl)c3)[C@H](N)C[C@@H]2N)[C@H](N)C[C@@H]1OCc1cc(Cl)cc(Cl)c1`, for which the MIC with Pseudomonas aeruginosa [1], in the test on Escherichia coli [2] and in the test with Acinetobacter baumannii [3] was greater than 128 µg/mL each time.
`CC[C@H](C)CCCCC(=O)N[C@@H](CCN)C(=O)N[C@H](C(=O)N[C@@H](CCN)C(=O)N[C@H]1CCNC(=O)[C@H]([C@@H](C)O)NC(=O)[C@H](CCN)NC(=O)[C@H](CCN)NC(=O)[C@H](CC(C)C)NC(=O)[C@@H](Cc2ccccc2)NC(=O)[C@H](CCN)NC1=O)[C@@H](C)O` (X1-[Dab]T[Dab][Dab][Dab][dF]L[Dab][Dab]T; lactam 4-C): the MIC in the test with Enterococcus faecium [15], with Enterococcus faecium [16] and in the test on Staphylococcus aureus [17] was greater than 128 µg/mL in each case.
As for `NC[C@H]1O[C@H](O[C@H]2[C@H](O)[C@@H](O[C@H]3O[C@H](CO)[C@@H](O)[C@H](N)[C@H]3O)[C@H](N)C[C@@H]2N)[C@H](N)C[C@@H]1O` [TOBRAMYCIN], the figures for the MIC in the test on Pseudomonas aeruginosa [1], in the test with Escherichia coli [2] and in the test on Acinetobacter baumannii [3] were 1 µg/mL (≈ 2.14 µM), 2 µg/mL (≈ 4.28 µM) and 0.5 µg/mL (≈ 1.07 µM), respectively.
For `CC(C)CCOC[C@H]1O[C@H](O[C@@H]2[C@@H](OCCC(C)C)[C@H](O[C@H]3O[C@H](CN)[C@@H](OCCC(C)C)C[C@H]3N)[C@@H](N)C[C@H]2N)[C@H](OCCC(C)C)[C@@H](N)[C@@H]1OCCC(C)C.Cl`, the minimum inhibitory concentration (MIC) in the test with Pseudomonas aeruginosa [1] stood at 16 µg/mL; with Escherichia coli [2] it was 4 µg/mL; with Acinetobacter baumannii [3], 16 µg/mL; in the test with Acinetobacter baumannii [7], 0.004 µg/mL. The figures for the “fold change (FC)” value with Pseudomonas aeruginosa [4] and in the test with Acinetobacter baumannii [5] were 16 and 2048, respectively.
On to `Cl.NC[C@H]1O[C@H](O[C@H]2[C@H](OCc3ccccc3)[C@@H](OCc3ccccc3)[C@H](N)C[C@@H]2N)[C@H](N)C[C@@H]1OCc1ccccc1`, for which the minimal inhibitory concentration (MIC) was greater than 128 µg/mL with Pseudomonas aeruginosa [1]; greater than 128 µg/mL in the test with Escherichia coli [2]; greater than 128 µg/mL with Acinetobacter baumannii [3]; 0.0312 µg/mL in the test with Escherichia coli [6]; 1 µg/mL in the test with Acinetobacter baumannii [7]. Besides, the “fold change (FC)” value with Pseudomonas aeruginosa [4] is recorded as 4; in the test on Escherichia coli [18], 512; in the test with Acinetobacter baumannii [5], 4.
With `CC(C)CCO[C@@H]1[C@@H](OCCC(C)C)[C@H](N)C[C@H](N)[C@H]1O[C@H]1O[C@H](CN)[C@@H](OCCC(C)C)C[C@H]1N.Cl`, the MIC was greater than 128 µg/mL in the test on Pseudomonas aeruginosa [1]; greater than 128 µg/mL in the test with Escherichia coli [2]; greater than 128 µg/mL in the test with Acinetobacter baumannii [3]; 0.0156 µg/mL in the test with Escherichia coli [6]; 0.5 µg/mL in the test on Acinetobacter baumannii [7]. Besides, the results for the “fold change (FC)” value in the test with Pseudomonas aeruginosa [4], in the test on Escherichia coli [18] and with Acinetobacter baumannii [5] were 4, 512 and 4, respectively.
For `NC[C@H]1O[C@H](O[C@H]2[C@H](OC(=O)Nc3ccccc3)[C@@H](O[C@H]3O[C@H](COC(=O)Nc4ccccc4)[C@@H](OC(=O)Nc4ccccc4)[C@H](N)[C@H]3OC(=O)Nc3ccccc3)[C@H](N)C[C@@H]2N)[C@H](N)C[C@@H]1OC(=O)Nc1ccccc1.O=C(O)C(F)(F)F`, the MIC in the test on Pseudomonas aeruginosa [1] was 64 µg/mL; in the test with Escherichia coli [2], 32 µg/mL; in the test with Acinetobacter baumannii [3], greater than 128 µg/mL; in the test with Escherichia coli [6], 0.008 µg/mL; in the test on Acinetobacter baumannii [7] it was 0.0312 µg/mL. Moreover, the fold change (FC) stood at 1 with Pseudomonas aeruginosa [4] and 16 in the test on Acinetobacter baumannii [5].
On to `CN(C)c1ccc(O)c2c1C[C@H]1C[C@H]3[C@H](N(C)C)C(O)=C(C(N)=O)C(=O)[C@@]3(O)C(O)=C1C2=O` [MINOCYCLINE], for which the MIC with Pseudomonas aeruginosa [8] was found to be 128 µg/mL (≈ 280 µM); with Pseudomonas aeruginosa [9], 256 µg/mL (≈ 560 µM); in the test on Pseudomonas aeruginosa [10], 32 µg/mL (≈ 69.9 µM); in the test with Pseudomonas aeruginosa [11], 64 µg/mL (≈ 140 µM); with Pseudomonas aeruginosa [12], 128 µg/mL (≈ 280 µM); in the test with Escherichia coli [13], 32 µg/mL (≈ 69.9 µM). Besides, the MIC with Escherichia coli [14] was 64 µg/mL (≈ 140 µM).
Turning to `Cl.NC[C@H]1O[C@H](O[C@H]2[C@H](OCc3ccc(Cl)cc3)[C@@H](O[C@H]3O[C@H](COCc4ccc(Cl)cc4)[C@@H](OCc4ccc(Cl)cc4)[C@H](N)[C@H]3OCc3ccc(Cl)cc3)[C@H](N)C[C@@H]2N)[C@H](N)C[C@@H]1OCc1ccc(Cl)cc1`, the MIC in the test with Pseudomonas aeruginosa [1], with Escherichia coli [2] and in the test on Acinetobacter baumannii [3] was greater than 128 µg/mL in each case.
In the case of `CC[C@H](C)CCCCC(=O)N[C@@H](CCN)C(=O)N[C@H](C(=O)N[C@@H](CCN)C(=O)N[C@H]1CCNC(=O)[C@H]([C@@H](C)O)NC(=O)[C@H](CCN)NC(=O)[C@H](CCN)NC(=O)[C@H](CC(C)C)NC(=O)[C@@H](Cc2ccccc2)NC(=O)[C@@H](CCN)NC1=O)[C@@H](C)O` (X1-[Dab]T[Dab][Dab][dDab][dF]L[Dab][Dab]T; lactam 4-C), the result in the test with Enterococcus faecium [19], in the test on Enterococcus faecium [20] and in the test with Staphylococcus aureus [21] was Active.
